{"source": "the NIST ThermoML archive (doi:10.1016/j.fluid.2005.12.004)", "conditions": "Liquid, Closed cell (Static) method", "note": "± gives the expanded uncertainty stated by the source.", "data": [{"compound": "FC(F)(F)C(F)(F)F", "note": "[hexafluoroethane]", "values": [{"measurement": "vapor or sublimation pressure", "setting": "189.31 K", "result": "73.9 ± 4", "unit": "kPa"}, {"measurement": "vapor or sublimation pressure", "setting": "192.63 K", "result": "88.5 ± 4", "unit": "kPa"}, {"measurement": "vapor or sublimation pressure", "setting": "247.63 K", "result": "883 ± 4.8", "unit": "kPa"}, {"measurement": "vapor or sublimation pressure", "setting": "252.8 K", "result": "1038.2 ± 5", "unit": "kPa"}]}]}
